Reference: patent US20260374773A1, “MULTI-CYCLIC IRAK AND FLT3 INHIBITING COMPOUNDS AND USES THEREOF” (CHILDREN'S HOSPITAL MEDICAL CENTER, priority 2022, published 2026)

Legend:
Format in all cases: cell-based
IRAK4 = target: T1, IRAK4 (Homo sapiens, UniProt Q9NWZ3); test: NanoBRET target engagement assay in HEK-293 cells, IRAK4; settings: live HEK-293 cells, 1 h
T1 sequence (Q9NWZ3 1-460): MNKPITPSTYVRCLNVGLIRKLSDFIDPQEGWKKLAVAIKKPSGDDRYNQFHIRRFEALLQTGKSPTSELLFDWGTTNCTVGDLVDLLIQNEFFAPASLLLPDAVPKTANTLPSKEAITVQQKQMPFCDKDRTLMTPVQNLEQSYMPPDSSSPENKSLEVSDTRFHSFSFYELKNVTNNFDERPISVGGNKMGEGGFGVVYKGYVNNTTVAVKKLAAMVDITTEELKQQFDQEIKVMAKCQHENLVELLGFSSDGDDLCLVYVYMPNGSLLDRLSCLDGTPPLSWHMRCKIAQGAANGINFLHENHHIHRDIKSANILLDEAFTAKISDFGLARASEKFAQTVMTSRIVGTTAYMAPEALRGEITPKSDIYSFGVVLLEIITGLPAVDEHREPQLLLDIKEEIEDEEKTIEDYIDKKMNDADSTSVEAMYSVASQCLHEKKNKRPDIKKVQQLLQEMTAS
Text: The NanoBRET assay measures kinase engagement in real time in the context of the intact cell. Unlike the previously described biochemical kinase assay methodology, the NanoBRET assay measures the binding and activity characteristics under equilibrium conditions using full-length kinases in the presence of cellular concentrations of ATP in live, uncompromised cells. As such, the assay provides a more relevant assessment of kinase potency and selectivity that would be expected to be observed in the native cellular environment, where potency is often considerably lower than that observed in the isolated biochemical assays (Vasta, J. D. et al., (2018) Cell Chem. Biol. 25, 206-214). The assay uses a Kinase-NanoLuc® fusion vector expressing a kinase protein to which a luciferase tag has been added, a cell-permeant fluorescent NanoBRET™ tracer, a NanoLuc® substrate, and an extracellular NanoLuc® inhibitor. Upon expression of the luciferase-tagged kinase, cells will produce a strong BRET signal only in the presence of the NanoBRET™ tracer. The extracellular NanoLuc® inhibitor ensures that the BRET signal observed emanates only from live cells. Because the BRET signal has tight distance constraints, addition of the test compound will decrease the BRET signal if the compound competes with the NanoBRET™ tracer for binding to the kinase domain. Under the appropriate tracer conditions established by the manufacturer, quantitative intracellular affinity and relative potency can then be determined using Mass Action model equations.
HEK-293 cells were purchased from ATCC. FuGENEHD Transfection Reagent, Kinase-NanoLucfusion plasmids, Transfection Carrier DNA, NanoBRETTracers and dilution buffer, NanoBRETNano-Glo Substrate, Extracellular NanoLucInhibitor were obtained from Promega.
Assays were conducted following Promega assay protocol with some modifications. HEK-293 Cells were transiently transfected with Kinase-NanoLucFusion Vector DNA by FuGENEHD Transfection Reagent. Testing compounds were delivered into 384 well assay plate by Echo 550 (LabcyteInc, Sunnyvale, CA). Transfected cells were harvested and mixed with NanoBRETTracer Reagent and dispensed into 384 well plates and incubated at 37 °C in 5% CO2 cell culture incubator for 1 hour. The NanoBRETNano-Glo Substrate plus Extracellular NanoLucInhibitor Solution were added into the wells of the assay plate and incubated for 2-3 minutes at room temperature. The donor emission wavelength (460 nm) and acceptor emission wavelength (600 nm) were measured in the En Visionplate reader. The BRET Ratios were calculated.
BRET Ratio=[(Acceptor sample÷Donor sample)−(Acceptor no-tracer control÷Donor no-tracer control)].
The IC50 values of compounds were calculated with Prism GraphPad program.
• 1). Cultivate HEK-293 cells (70-80% confluence) appropriately prior to assay. Trypsinize and collect HEK-293 cells. • 2). Prepare lipid:DNA complexes as follows: • a. Prepare a 10 μg/ml solution of DNA in Opti-MEM without serum that consists of the following ratios of carrier DNA and DNA encoding NanoLuc® fusion. 9.0 μg/mL of Transfection Carrier DNA, 1.0 μg/mL of NanoLuc fusion vector DNA and 1 mL of Opti-MEM without phenol red. Mix thoroughly. • b. Add 30 μl of FuGENE HD Transfection Reagent into each milliliter of DNA mixture to form lipid:DNA complex. • c. Mix by inversion 10 times. • d. Incubate at ambient temperature for 20 minutes to allow complexes to form. • 3). In a sterile, conical tube, mix 1 part of lipid:DNA complex with 20 parts of HEK-293 cells in suspension. Mix gently by inversion 5 times. • 4). Dispense cells+lipid:DNA complex into a sterile tissue culture dish and incubate for 22-24 hours.
Each test compound is delivered from the compound source plate to the wells of 384-well white NBS plate by Echo 550.
3. Preparation of Cells with NanoBRET™ Tracer Reagent • 1). Remove medium from dish with transfected HEK-293 cells via aspiration, trypsinize and allow cells to dissociate from the dish. • 2). […]

NF-κB [1] = test: NF-κB SEAP reporter assay in THP-1-Blue NF-κB cells, Pam3CSK4 stimulated; settings: THP-1-Blue cells, 1 ng/ml Pam3CSK4, 24 h, read-out: NF-κB Pam3SCK4 IC50
Description: (§1) THP-1-Blue NF-κB cells (InvivoGen) carrying a stable integrated NF-κB-inducible secreted embryonic alkaline phosphatase (SEAP) reporter construct were plated at a concentration of 1×10^5 cells per well. The cells were stimulated with Pam3CSK4 (1 ng/ml) or hIL1B (1 ng/ml). After 10-20 minutes, the cells were then treated with vehicle (DMSO) or serial dilutions of the test compounds (10 doses tested for each test compound, with a […] starting at 1 μM or 3 μM) with a final volume of 200 μL for 24 hours at 37 °C. After 24 hours, the cells were centrifuged and 20 μL supernatant was incubated with 180 μL QUANTI-Blue reagent at 37 °C for 30-60 minutes. The levels of NF-κB-induced was measured in a microplate reader at 620 nm.
as §1, with “1 mM” for “1 μM”, “3 mM)” for “3 μM)”, “200 mL” for “200 μL”, “20 mL” for “20 μL”, “180 mL” for “180 μL”, “NF-κB-induced gene expression were” for “NF-κB-induced was”

NF-κB [2] = test: NF-κB SEAP reporter assay in THP-1-Blue NF-κB cells, hIL1B stimulated; settings: THP-1-Blue cells, 1 ng/ml hIL1B, 24 h, read-out: NF-κB IL1B IC50
Description: as §1
as §1, with “1 mM” for “1 μM”, “3 mM)” for “3 μM)”, “200 mL” for “200 μL”, “20 mL” for “20 μL”, “180 mL” for “180 μL”, “NF-κB-induced gene expression were” for “NF-κB-induced was”

COc1cn2ncc(-c3nc(N[C@H]4CNC[C@@H]4F)c(F)cc3F)c2nc1C(C)(C)O [Compound 12, 2-(3-(3,5-difluoro-6-(((3S,4S)-4-fluoropyrrolidin-3-yl)amino)pyridin-2-yl)-6-methoxypyrazolo[1,5-a]pyrimidin-5-yl)propan-2-ol]
IC50 (IRAK4; Table 14): < 0.5 nM | IC50 (NF-κB [1]; Table 15): 42 nM | IC50 (NF-κB [2]; Table 15): 41 nM

COc1cn2ncc(-c3cncc(N[C@H]4CNCC[C@@H]4F)n3)c2nc1C1CC1 [Compound 12a, 6-(5-cyclopropyl-6-methoxypyrazolo[1,5-a]pyrimidin-3-yl)-N-((3S,4S)-4-fluoropiperidin-3-yl)pyrazin-2-amine]
IC50 (IRAK4; Table 20): < 0.5 nM | IC50 (NF-κB [1]; Table 21): 83 nM | IC50 (NF-κB [2]; Table 21): 55 nM

COc1cn2ncc(-c3nc(N[C@H]4CNCC[C@@H]4F)c(F)cc3F)c2nc1C(C)(C)O [Compound 13, 2-(3-(3,5-difluoro-6-(((3S,4S)-4-fluoropiperidin-3-yl)amino)pyridin-2-yl)-6-methoxypyrazolo[1,5-a]pyrimidin-5-yl)propan-2-ol]
IC50 (IRAK4; Table 14): < 0.5 nM | IC50 (NF-κB [1]; Table 15): 99 nM | IC50 (NF-κB [2]; Table 15): 73 nM

COc1cn2ncc(-c3nc(N[C@H]4CNC[C@@H]4F)ncc3F)c2nc1C1CC1 [Compound 13a, 4-(5-cyclopropyl-6-methoxypyrazolo[1,5-a]pyrimidin-3-yl)-5-fluoro-N-((3S,4S)-4-fluoropyrrolidin-3-yl)pyrimidin-2-amine]
IC50 (IRAK4; Table 20): < 0.5 nM | IC50 (NF-κB [1]; Table 21): 19 nM | IC50 (NF-κB [2]; Table 21): 27 nM

COc1cn2ncc(-c3nc(N[C@@H]4CCCNC4)ncc3F)c2nc1C1CC1 [Compound 14a, (R)-4-(5-cyclopropyl-6-methoxypyrazolo[1,5-a]pyrimidin-3-yl)-5-fluoro-N-(piperidin-3-yl)pyrimidin-2-amine]
IC50 (IRAK4; Table 20): < 0.5 nM | IC50 (NF-κB [1]; Table 21): 15 nM | IC50 (NF-κB [2]; Table 21): 22 nM

COc1cn2ncc(-c3nc(N[C@H]4CNCC[C@@H]4F)ncc3F)c2nc1C1CC1 [Compound 15a, 4-(5-cyclopropyl-6-methoxypyrazolo[1,5-a]pyrimidin-3-yl)-5-fluoro-N-((3S,4S)-4-fluoropiperidin-3-yl)pyrimidin-2-amine]
IC50 (IRAK4; Table 20): < 0.5 nM | IC50 (NF-κB [1]; Table 21): 5 nM | IC50 (NF-κB [2]; Table 21): 8 nM

COc1cn2ncc(-c3cccc(N[C@H]4CNCC[C@@H]4F)n3)c2nc1C1CC1 [Compound 21, 6-(5-cyclopropyl-6-methoxypyrazolo[1,5-a]pyrimidin-3-yl)-N-((3S,4S)-4-fluoropiperidin-3-yl)pyridin-2-amine]
IC50 (IRAK4; Table 14): < 0.5 nM | IC50 (NF-κB [1]; Table 15): 362 nM | IC50 (NF-κB [2]; Table 15): 342 nM

COc1cn2ncc(-c3nc(N[C@H]4CNCC[C@@H]4F)c(F)cc3F)c2nc1C1CC1 [Compound 22, 6-(5-cyclopropyl-6-methoxypyrazolo[1,5-a]pyrimidin-3-yl)-3,5-difluoro-N-((3S,4S)-4-fluoropiperidin-3-yl)pyridin-2-amine]
IC50 (IRAK4; Table 14): < 0.5 nM | IC50 (NF-κB [1]; Table 15): 7 nM | IC50 (NF-κB [2]; Table 15): 19 nM
